Converted amounts (≈) assume the structure as drawn.

Our source for the CC50 and IC50 values is patent publication US5446045A, “Antiviral guanine analogs” (priority 1993, dated 1995).

System in the first data set: not listed separately
Put plainly: Cytotoxicity (inhibition of cell growth) in actively dividing Vero cells, CellTiter 96 assay. Format: cell-based. As to conditions: african green monkey, 4 day incubation, read-out: Cytotoxicity (TC50). On the procedure: (§1) Vero and MRC-5 cells were obtained from ATCC. Human foreskin fibroblast (HFF) and Vero cells were routinely grown in minimal essential medium (MEM) with Earle salts [MEM(E)]supplemented with 10% fetal bovine serum (FBS). MRC-5 cells were grown in Basal Medium Eagle (BME) with 10% FBS and 0.035% NaHCO3. Cells were passaged according to conventional procedures.^33 Human cytomegalovirus (HCMV) strains AD169 and Towne were obtained from the ATCC. Herpes simplex virus type i and type 2 (HSV1 and HSV2) are commercially available.
(§2) Stationary uninfected HFF and MRC-5 cells were evaluated for visual cytotoxicity on the scoring basis of 0 (no visual cytotoxicity at 20 fold magnification) to 4 (cell sheet nearly destroyed). Cytotoxicity as measured by inhibition of cell growth was performed in Vero cells using a CellTiter 96™ Aqueous Non-Radioactivity Cell Proliferation Assay (Promega). Cytotoxicity assays were performed using a 4 day incubation of test compound with Vero cells plated at 500 cells/well. Each assay was performed in quadruplicate. The resultant data are averaged, graphed and then used to calculate the TC50 (median toxic concentration) for the compound tested.
III. […] For all values listed as >x, x is the highest concentration tested for the respective compound.
For the compound `CC(C)=CCn1c(=O)sc2c(=O)[nH]c(N)nc21` [Compound R1132-72, 5-Amino-3-(3-methylbut-2-ene-1-yl)thiazo lo[4,5-d]-pyrimidine-2,7(3H,6H)-dione], the CC50 at 96 h stood at 20 µg/mL (≈ 79.3 µM).

Take `CCCCC(CCCC)n1c(=O)sc2c(=O)[nH]c(N)nc21` [Compound R1132-73, 5-Amino-3-(nonan-5-yl)thiazolo[4,5-d]-pyrimidine-2,7(3H, 6H)-dione]: the CC50 at 96 h was > 2.5 µg/mL.

Consider `CCC=CCn1c(=O)sc2c(=O)[nH]c(N)nc21` [Compound R1132-74, 5-Amino-3-(pent-2-ene-1-yl)thiazolo[4,5-d]-pyrimidine-2,7(3H,6H)-dione], for which the CC50 at 96 h is > 20 µg/mL.

A further data set has as its system Human cytomegalovirus (HCMV) strain AD169. Description: HCMV plaque reduction (cytopathic effect) assay, strain AD169 in MRC-5 cells. Format: cell-based. The following applies: Human betaherpesvirus 5, AD169/MRC5, read-out: IC50 (median inhibitory concentration). As for the experimental part:
as §1
Two different plaque reduction assays were employed to determine the antiviral efficacy of the test compounds in culture. The first assay used MRC-5 cells and the AD169 strain of HCMV. The second assay used HFF cells and the Towne strain of HCMV. In experiments using MRC-5 cells the growth medium was removed from monolayer cultures in 24-well tissue culture plates. One mL of virus (AD169), diluted in test medium (Dulbecco's modified Eagle medium (DMEM), 2% FBS, 0.1% NaHCO3 and 50 ug gentamicin/mL) was used. The 24-well plates were centrifuged at 2200 rpm for 30 minutes at room temperature to allow the virus to adsorb. Medium was then aspirated from each well of the plates. The individual dilutions of each compound (prepared in test medium) were placed in each test well (0.8 mL/well, 4 wells/dilution). All plates were incubated at 37° C. in a moist atmosphere of 5% CO2. When virus plaques had formed in control cells (HCMV infected, untreated) the medium was aspirated from all wells, and the cells were stained by adding 0.3 mL of 0.2% crystal violet in 10% buffered formalin to each well. After 15 minutes, the stain was removed, cells were rinsed in tap water until the water was clear, and the plates were inverted and dried at room temperature. Plaques were counted by use of a dissecting microscope.
(§3) Ganciclovir was used as an anti-HCMV standard in all HCMV assays.
(§4) I. A series of guanine analogs containing an alkyl side chain in place of sugar moiety were evaluated for their ability to inhibit HCMV production in acute infection assays in culture and for cytotoxicity in HFF and MRC-5 cells.
(§5) III. Table 1 lists the median inhibitory concentration (IC50) for all compounds tested against HCMV strains AD169 or Towne. In addition this table lists the median toxic concentrations of these compounds (TC50) as determined by visual observation of uninfected cells treated with various concentrations of drug.
Plaque reduction assays were employed to determine the antiviral efficacy of the test compounds in culture. MRC-5 cells and the AD169 strain of FICMV were used. Growth medium was removed from monolayer cultures in 24-well tissue culture plates. One ml of virus, diluted in test medium (Dulbecco's modified Eagle medium (DMEM), 2% FBS, 0.1% NaHCO3 and 50 ug gentamicin/ml). After infection and subsequent removal of the media, individual dilutions of each compound (prepared in test medium) were placed in each test well (0.8 ml/well, 4 wells/dilution) and plates incubated at 37° C. in a moist atmosphere of 5% CO2. When virus plaques have formed in control cells (HCMV infected, untreated) the medium was aspirated from all wells, and the cells stained by adding 0.3 ml of 0.2% crystal violate in 10% buffered formalin to each well. Plaques were counted by use of a dissecting microscope. Ganciclovir was used as an anti-HCMV standard in all HCMV assays.
(In general: Cytopathic effects are the visible damage that an infection or toxin causes in cultured cells.)
Regarding `CC(C)=CCn1c(=O)sc2c(=O)[nH]c(N)nc21` [Compound R1132-72, 5-Amino-3-(3-methylbut-2-ene-1-yl)thiazo lo[4,5-d]-pyrimidine-2,7(3H,6H)-dione], the IC50 worked out at 4 µg/mL (≈ 15.9 µM).

As for `CCCCC(CCCC)n1c(=O)sc2c(=O)[nH]c(N)nc21` [Compound R1132-73, 5-Amino-3-(nonan-5-yl)thiazolo[4,5-d]-pyrimidine-2,7(3H, 6H)-dione], the IC50 was determined as 9.4 µg/mL (≈ 30.3 µM).

As for `CCC=CCn1c(=O)sc2c(=O)[nH]c(N)nc21` [Compound R1132-74, 5-Amino-3-(pent-2-ene-1-yl)thiazolo[4,5-d]-pyrimidine-2,7(3H,6H)-dione], the IC50 is < 1 µg/mL.

A further data set deals with Human cytomegalovirus (HCMV) strain Towne. Description: HCMV plaque reduction (cytopathic effect) assay, strain Towne in HFF cells. Format: cell-based. The following applies: Human betaherpesvirus 5, HFF, read-out: IC50 (median inhibitory concentration). As for the experimental part:
as §1
A similar set of experiments designed to monitor HCMV plaque reduction were performed with monolayer cultures of HFF and the Towne strain of HCMV using procedures similar to those reported by Turk et al.^34 Diploid HFF cells were plated 24 hr before use at approximately 1×10^5 cells/plate. These monolayer cultures were infected with 100 plaque forming units (PFU) of virus. The compounds to be assayed were dissolved in culture medium. Viral adsorption was allowed to proceed for 1 hr at which time virus containing medium was removed and replaced with medium containing the various dilutions of the test compounds. Plaques were counted using crystal violet as described above.
as §3, §4, §5
`CC(C)=CCn1c(=O)sc2c(=O)[nH]c(N)nc21` [Compound R1132-72, 5-Amino-3-(3-methylbut-2-ene-1-yl)thiazo lo[4,5-d]-pyrimidine-2,7(3H,6H)-dione]: the IC50 amounted to 1.7 µg/mL (≈ 6.74 µM).

`CCCCC(CCCC)n1c(=O)sc2c(=O)[nH]c(N)nc21` [Compound R1132-73, 5-Amino-3-(nonan-5-yl)thiazolo[4,5-d]-pyrimidine-2,7(3H, 6H)-dione]: the IC50 worked out at 4.7 µg/mL (≈ 15.1 µM).

Regarding `CCC=CCn1c(=O)sc2c(=O)[nH]c(N)nc21` [Compound R1132-74, 5-Amino-3-(pent-2-ene-1-yl)thiazolo[4,5-d]-pyrimidine-2,7(3H,6H)-dione], the IC50 came to 0.14 µg/mL (≈ 0.555 µM).

System in the next data set: not listed separately
Description: Visual cytotoxicity in stationary uninfected HFF cells. It counts as cell-based. The following applies: human; Towne/HFF system; visual observation of stationary uninfected HFF cells; read-out: TC50 (median toxic concentration). As for the experimental part:
as §1, §2, §4, §5
`CC(C)=CCn1c(=O)sc2c(=O)[nH]c(N)nc21` [Compound R1132-72, 5-Amino-3-(3-methylbut-2-ene-1-yl)thiazo lo[4,5-d]-pyrimidine-2,7(3H,6H)-dione]: the CC50 came to 100 µg/mL (≈ 396 µM).

With `CCCCC(CCCC)n1c(=O)sc2c(=O)[nH]c(N)nc21` [Compound R1132-73, 5-Amino-3-(nonan-5-yl)thiazolo[4,5-d]-pyrimidine-2,7(3H, 6H)-dione], the CC50 was 11.1 µg/mL (≈ 35.8 µM).

Regarding `CCC=CCn1c(=O)sc2c(=O)[nH]c(N)nc21` [Compound R1132-74, 5-Amino-3-(pent-2-ene-1-yl)thiazolo[4,5-d]-pyrimidine-2,7(3H,6H)-dione], the CC50 was > 100 µg/mL.

System in a further data set: not listed separately
Put plainly: Visual cytotoxicity in stationary uninfected MRC-5 cells. It counts as cell-based. The following applies: human, AD169/MRC5 system, visual observation of stationary uninfected MRC5 cells, read-out: TC50 (median toxic concentration). On the procedure: as §2, §4, §5
Take `CC(C)=CCn1c(=O)sc2c(=O)[nH]c(N)nc21` [Compound R1132-72, 5-Amino-3-(3-methylbut-2-ene-1-yl)thiazo lo[4,5-d]-pyrimidine-2,7(3H,6H)-dione]: the CC50 is > 100 µg/mL.

Regarding `CCCCC(CCCC)n1c(=O)sc2c(=O)[nH]c(N)nc21` [Compound R1132-73, 5-Amino-3-(nonan-5-yl)thiazolo[4,5-d]-pyrimidine-2,7(3H, 6H)-dione], the CC50 amounted to 178 µg/mL (≈ 573 µM).

On to `CCC=CCn1c(=O)sc2c(=O)[nH]c(N)nc21` [Compound R1132-74, 5-Amino-3-(pent-2-ene-1-yl)thiazolo[4,5-d]-pyrimidine-2,7(3H,6H)-dione], for which the CC50 was > 100 µg/mL.

In the next data set the test system is Herpes simplex virus type 2 (HSV2). Put plainly: Inhibition of HSV2 in Vero cells (CPE assay). It counts as cell-based. As to conditions: Human alphaherpesvirus 2, CPE scored 40 to 48 h post-infection. On the procedure: as §1
(§6) Vero cells were plated at 4×10^4 cells/well in a 96-well microtitre dish in 0.1 mL of MEM(E) with 10% FBS 24 h before infection with virus. The cells were incubated at 37° C. in a 5% CO2 atmosphere. The medium was then removed and 50 μL of media containing 30 to 50 PFU of virus was allowed to adsorb to the cells for 10 minutes at 37° C. The virus containing medium was then removed and the cells were rinsed 3 times with fresh media. A final 100 μL aliquot of fresh medium, containing the various dilutions of test compounds, was then added to each well and the plates were then incubated at 37° C. Plaques were observed 24 hr post-infection and the degree of cytopathic effect scored 40 to 48 h post-infection. Acyclovir was used as a standard in all ttSV assays.
(§7) I. The same compounds used in Example 31 were also assayed for their ability to inhibit herpes simplex viruses type 1 and type 2 in acute infection assays in culture.
(§8) III. The toxic effect of these compounds on actively dividing Vero cells is reported. For all values listed as >x, x is the highest concentration tested for the respective compound.
(§9) Vero cells were plated in a 96-well microtitre dish in 0.1 ml of MEM(E) with 10% FBS 24 hours before infection with virus. The medium will then be removed and 50 ul of media containing 30 to 50 PFU of virus were allowed to adsorb to the cells for 10 minutes at 37° C. The virus-containing medium will then be removed and the cells rinsed 3 times with fresh media. A final 100 ul aliquot of fresh medium, containing the various dilutions of test compounds, were added to each well and the plates incubated at 37° C. Plaques were observed 24 hours post-infection and the degree of cytopathic effect scored 40 to 48 hours-post infection. Acyclovir was used as a standard in all HSV assays.
Turning to `CC(C)=CCn1c(=O)sc2c(=O)[nH]c(N)nc21` [Compound R1132-72, 5-Amino-3-(3-methylbut-2-ene-1-yl)thiazo lo[4,5-d]-pyrimidine-2,7(3H,6H)-dione], the IC50 is 5.6 µg/mL (≈ 22.2 µM).

For `CCCCC(CCCC)n1c(=O)sc2c(=O)[nH]c(N)nc21` [Compound R1132-73, 5-Amino-3-(nonan-5-yl)thiazolo[4,5-d]-pyrimidine-2,7(3H, 6H)-dione], the IC50 is > 2.2 µg/mL.

In the case of `CCC=CCn1c(=O)sc2c(=O)[nH]c(N)nc21` [Compound R1132-74, 5-Amino-3-(pent-2-ene-1-yl)thiazolo[4,5-d]-pyrimidine-2,7(3H,6H)-dione], the IC50 was < 0.27 µg/mL.

For another data set, the system named is Herpes simplex virus type 1 (HSV1). Put plainly: Inhibition of HSV1 in Vero cells (CPE assay). It counts as cell-based. The following applies: Human alphaherpesvirus 1, CPE scored 40 to 48 h post-infection. On the procedure:
as §1, §6, §7, §8, §9
`CC(C)=CCn1c(=O)sc2c(=O)[nH]c(N)nc21` [Compound R1132-72, 5-Amino-3-(3-methylbut-2-ene-1-yl)thiazo lo[4,5-d]-pyrimidine-2,7(3H,6H)-dione] showed an IC50 of 5.6 µg/mL (≈ 22.2 µM).

In the case of `CCCCC(CCCC)n1c(=O)sc2c(=O)[nH]c(N)nc21` [Compound R1132-73, 5-Amino-3-(nonan-5-yl)thiazolo[4,5-d]-pyrimidine-2,7(3H, 6H)-dione], the IC50 was > 2.2 µg/mL.

Regarding `CCC=CCn1c(=O)sc2c(=O)[nH]c(N)nc21` [Compound R1132-74, 5-Amino-3-(pent-2-ene-1-yl)thiazolo[4,5-d]-pyrimidine-2,7(3H,6H)-dione], the IC50 amounted to 0.53 µg/mL (≈ 2.1 µM).
